Source: the supplement of paper PMC10883282

Tests used:
Test in all cases: relative viability vs DMSO control (72 h) (fraction); higher = more viable cells
HS729 = test system: HS729
Procedure, shortened: (§1)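 Plates held 72 h at 37 °C and 5% CO2 contained sarcoma cell lines seeded in 384-well format to reach 80–90% confluence, plus 2.5 µl of serially diluted compound added after 24 h. Source plate concentrations ran from 10 mM to 0.0002 mM, with 0.1% DMSO as vehicle and a 5 µM positive control. Percent growth from ATPLite readings, averaged over up to triplicate wells, gave relative viability. Values were rescaled with 1 as full and 0 as none.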

SK-LMS-1 = test system: SK-LMS-1
Procedure, shortened: as §1

RD = test system: RD
Procedure, shortened: as §1

MES-SA = test system: MES-SA
Procedure, shortened: as §1

VA-ES-BJ = test system: VA-ES-BJ
Procedure, shortened: as §1

CNC(=O)c1c(C)oc2cc(Oc3ncnc4cc(OC)c(OC)cc34)ccc12 [Fruquintinib]
relative viability
Conditions | HS729 | MES-SA | RD | SK-LMS-1 | VA-ES-BJ
0.00017 µM | 1.09 | 0.96 | 1.03 | 1.11 | 1.05
0.00051 µM | 1 | 0.975 | 1.09 | 1.1 | 1.02
0.00152 µM | 0.959 | 0.943 | 1.09 | 1.106 | 1.03
0.00457 µM | 0.961 | 0.935 | 1.1 | 1.1 | 1
0.01372 µM | 0.908 | 0.947 | 1.07 | 1.1 | 0.997
0.04115 µM | 0.927 | 0.9442 | 1.08 | 1.07 | 1.01
0.1235 µM | 0.896 | 0.922 | 1.06 | 1.07 | 0.996
0.3704 µM | 0.852 | 0.929 | 1.089 | 1.04 | 1.03
1.111 µM | 0.794 | 0.9218 | 1.08 | 1.01 | 0.995
3.333 µM | 0.717 | 0.855 | 1.08 | 0.976 | 0.953
10 µM | 0.657 | 0.806 | 1.04 | 0.991 | 0.936

O=C(/C=C\n1cnc(-c2cc(C(F)(F)F)cc(C(F)(F)F)c2)n1)NNc1cnccn1 [Selinexor]
relative viability
Conditions | HS729 | MES-SA | RD | SK-LMS-1 | VA-ES-BJ
0.00017 µM | 1.07 | 1.011 | 1.052 | 1.03 | 1.1
0.00051 µM | 1.06 | 0.985 | 1.08 | 1.03 | 1.09
0.00152 µM | 1.05 | 0.971 | 1.09 | 0.98 | 1.08
0.00457 µM | 0.98 | 0.965 | 1.07 | 0.95 | 1.03
0.01372 µM | 0.929 | 0.911 | 1.01 | 0.856 | 0.953
0.04115 µM | 0.835 | 0.808 | 0.943 | 0.736 | 0.78
0.1235 µM | 0.7742 | 0.4844 | 0.754 | 0.512 | 0.565
0.3704 µM | 0.741 | 0.342 | 0.51007 | 0.319 | 0.318
1.111 µM | 0.676 | 0.255 | 0.404 | 0.241 | 0.198
3.333 µM | 0.602 | 0.189 | 0.304 | 0.246 | 0.187
10 µM | 0.499 | 0.1447 | 0.252 | 0.234 | 0.165

O=S(=O)(c1cccc2c(O)nccc12)N1CCCNCC1 [Hydroxyfasudil]
relative viability
Conditions | HS729 | MES-SA | RD | SK-LMS-1 | VA-ES-BJ
0.00017 µM | 1.087 | 0.981 | 1.089 | 1.01 | 1.07
0.00051 µM | 0.998 | 0.973 | 1.14 | 1.06 | 1.1
0.00152 µM | 1.05 | 0.93 | 1.16 | 1.01 | 1.11
0.00457 µM | 1.004 | 0.962 | 1.14 | 1.06 | 1.08
0.01372 µM | 0.967 | 0.944 | 1.15 | 1.04 | 1.07
0.04115 µM | 0.969 | 0.92 | 1.16 | 1.06 | 1.061
0.1235 µM | 0.97 | 0.96 | 1.15 | 0.983 | 1.06
0.3704 µM | 0.962 | 0.942 | 1.16 | 0.99 | 1.09
1.111 µM | 0.95 | 0.934 | 1.17 | 0.99 | 1.01
3.333 µM | 0.887 | 0.879 | 1.17 | 0.987 | 1.01
10 µM | 0.853 | 0.819 | 1.18 | 0.869 | 0.998

CO[C@H]1C[C@@H]2CC[C@@H](C)[C@@](O)(O2)C(=O)C(=O)N2CCCC[C@H]2C(=O)O[C@H]([C@H](C)C[C@@H]2CC[C@@H](OC(=O)C(C)(CO)CO)[C@H](OC)C2)CC(=O)[C@H](C)/C=C(\C)[C@@H](O)[C@@H](OC)C(=O)[C@H](C)C[C@H](C)/C=C/C=C/C=C/1C [Temsirolimus]
relative viability
Conditions | HS729 | MES-SA | RD | SK-LMS-1 | VA-ES-BJ
0.00017 µM | 0.909 | 0.814 | 1.09 | 0.916 | 0.864
0.00051 µM | 0.926 | 0.651 | 1.01 | 0.699 | 0.723
0.00152 µM | 0.907 | 0.497 | 0.91 | 0.6325 | 0.577
0.00457 µM | 0.931 | 0.423 | 0.84 | 0.597 | 0.547
0.01372 µM | 0.903 | 0.382 | 0.792 | 0.537 | 0.487
0.04115 µM | 0.854 | 0.3571 | 0.755 | 0.495 | 0.448
0.1235 µM | 0.811 | 0.353 | 0.735 | 0.477 | 0.415
0.3704 µM | 0.758 | 0.3494 | 0.681 | 0.472 | 0.42
1.111 µM | 0.753 | 0.343 | 0.667 | 0.464 | 0.419
3.333 µM | 0.739 | 0.314 | 0.578 | 0.441 | 0.415
10 µM | 0.388 | 0.223 | 0.441 | 0.0134 | 0.377

C[C@@H]1CN(C(=O)c2ccc(NC(=O)c3cc(O[C@H](C)c4c(Cl)ccc(F)c4Cl)c(N)nn3)cc2)C[C@H](C)N1 [Ensartinib]
relative viability
Conditions | HS729 | MES-SA | RD | SK-LMS-1 | VA-ES-BJ
0.00017 µM | 0.96 | 0.921 | 1.01 | 0.995 | 1.05
0.00051 µM | 1.02 | 0.896 | 1.02 | 0.9982 | 1.02
0.00152 µM | 1.03 | 0.938 | 1.06 | 1.01 | 1.03
0.00457 µM | 1.01 | 0.929 | 1.06 | 1.04 | 1.03
0.01372 µM | 0.998 | 0.932 | 1.028 | 1.03 | 1.06
0.04115 µM | 0.986 | 0.926 | 1.028 | 1.02 | 1.05
0.1235 µM | 0.955 | 0.961 | 0.972 | 1.01 | 1.02
0.3704 µM | 0.888 | 0.933 | 0.9011 | 0.83 | 0.855
1.111 µM | 0.764 | 0.498 | 0.683 | 0.656 | 0.662
3.333 µM | 0.594 | 0.296 | 0.561 | 0.53 | 0.489
10 µM | 0.207 | 0.1 | 0.0738 | 0.0598 | 0.362
